Test results as given in patent US7772246B2 (Pfizer Inc., priority 2007, dated 2010).

target: T1, b-Raf (Homo sapiens, UniProt P15056, V600E); assay: Raf cellular assay (phospho-Mek1/2 ELISA in A2058 cells); assay type: cell-based; settings: Table 2; human melanoma A2058 cells (b-Raf mutation), Mek1/2 Ser217/221 phosphorylation, 1 hour incubation; read-out: pMEK IC50
T1 construct: endogenous in cells; host or cells: A2058 human melanoma cells
Experimental: Compounds of the present invention were evaluated for potency against b-Raf using a cellular assay as follows. The activity of Raf kinases in cells is determined by measuring the level of phosphorylation of Mek1/2 at serine 217/221, the site phosphorylated by Raf kinases in vivo. Mek1/2 Ser phosphorylation is measured using anti-phospho-Mek1/2 antibodies (Cell Signaling #9121) in an ELISA format.
Healthy growing human melanoma A2058 cells (harboring a b-Raf mutation) are used for the assay. A2058 cells are grown in 10% FBS DMEM medium. When the cells are near 85%+confluence, the cells are rinsed with PBS once and trypsinized with trypsin/EDTA for 3 minutes. The cells are resuspended in 10% FBS DMEM and are centrifuged down at 1000 rpm for 5 minutes. The cells are resuspended in 10% FBS DMEM and counted on a cell counter. The cells are seeded at 50,000 cells/well in a volume of 100 μL/well in 10% FBS DMEM in a 96 well flat-bottom plate. The negative control wells receive only 100 μL of 10% FBS DMEM medium without cells. The plate is incubated overnight in a cell culture incubator with 5% CO2 at 37° C.
On day 2, testing compounds are prepared in 10% FBS DMEM medium and serially diluted at 1:3 for 11 test concentrations. Each concentration of the compounds is tested in duplicate. The compound solutions are added at 25 μL/well to the corresponding wells in the cell plate, and 25 μL/well of the vehicle (0.5% DMSO in 10% FBS DMEM) is added to the negative control wells (no cells) and the positive control wells (cells without compounds). The plate is incubated for 1 hour in a cell culture incubator with 5% CO2 at 37° C. After 1 hour of incubation, the medium is removed, 100 μL/well of cell lysis buffer is added into the cell plate, and the plate is shaken for 15 minutes at room temperature. After 15 minutes, the cell lysates are transferred to an ELISA plate (pre-coated with anti-Mek1 anti-body, Cell Signaling #2352), and the plate is incubated with gentle shaking for 2 hours at room temperature. After 2 hours, the contents of the wells are aspirated and the wells are washed 4 times with wash buffer. 100 μL of phospho-Mek1/2 detection antibody (Cell Signaling #9121) is added into each well and the plate is incubated with gentle shaking for 1 hour at room temperature. After 1 hour, the wells are aspirated and washed 4 times with wash buffer. 100 μL of anti-rabbit IgG HRP-linked antibody (Cell Signaling #7074) is added to each well, and the plate is incubated with gentle shaking for 1 hour at room temperature. After 1 hour, the contents of the wells are aspirated and the wells are washed 4 times with wash buffer. 100 μL of TMB substrate solution (Sigma #T0440) is added into each well, and the plate is incubated with gentle shaking at room temperature for 10 to 20 minutes. After color development, 100 μL of stop solution (1N hydrochloric acid) is added to each well to terminate color development. The plate is read at 450 nm on an ELISA plate reader.

T1 sequence (P15056 whole entry V600E): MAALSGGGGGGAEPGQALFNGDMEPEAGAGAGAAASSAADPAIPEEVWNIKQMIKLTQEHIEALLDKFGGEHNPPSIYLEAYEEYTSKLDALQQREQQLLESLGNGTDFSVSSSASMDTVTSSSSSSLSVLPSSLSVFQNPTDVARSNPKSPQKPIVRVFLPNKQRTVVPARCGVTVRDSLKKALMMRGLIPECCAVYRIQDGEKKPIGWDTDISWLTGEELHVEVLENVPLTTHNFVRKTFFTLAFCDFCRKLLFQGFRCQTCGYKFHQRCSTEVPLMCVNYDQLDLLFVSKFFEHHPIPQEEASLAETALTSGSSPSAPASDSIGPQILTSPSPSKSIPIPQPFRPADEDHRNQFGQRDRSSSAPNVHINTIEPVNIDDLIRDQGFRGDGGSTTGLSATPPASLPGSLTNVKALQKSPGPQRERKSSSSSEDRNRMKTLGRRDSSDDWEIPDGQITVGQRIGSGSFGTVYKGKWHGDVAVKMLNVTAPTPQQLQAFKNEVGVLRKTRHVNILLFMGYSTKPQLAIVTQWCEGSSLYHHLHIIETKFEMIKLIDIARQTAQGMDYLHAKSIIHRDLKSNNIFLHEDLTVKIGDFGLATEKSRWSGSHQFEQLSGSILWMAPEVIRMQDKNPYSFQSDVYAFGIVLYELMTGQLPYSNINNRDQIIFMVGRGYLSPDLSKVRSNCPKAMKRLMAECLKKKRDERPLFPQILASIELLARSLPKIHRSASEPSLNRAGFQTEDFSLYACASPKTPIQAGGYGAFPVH

| IC50 | Compound |
| --- | --- |
| 8490 nM | Cc1cn2cc(-c3nn(C(C)C)cc3-c3ccnc(NC[C@H](C)O)n3)cnc2n1 [Example B-8, (2S)-1-(4-(1-isopropyl-3-(2-methylimidazo[1,2-a]pyrimidin-6-yl)-1H-pyrazol-4-yl)pyrimidin-2-ylamino)propan-2-ol] |

same assay, conditions: Table 3; human melanoma A2058 cells (b-Raf mutation), Mek1/2 Ser217/221 phosphorylation, 1 hour incubation; read-out: pMEK IC50

| Compound | IC50 |
| --- | --- |
| COc1cc(-c2nn(C(C)C)cc2-c2ccnc(NC3CC3)n2)cnc1N [Example B-16, 4-[3-(6-amino-5-methoxypyridin-3-yl)-1-isopropyl-1H-pyrazol-4-yl]-N-cyclopropylpyrimidin-2-amine] | 24 nM |
| C[C@H](O)CNc1nccc(-c2cn(C3CC(F)(F)C3)nc2-c2cnc3[nH]cc(Cl)c3c2)n1 [Example B-17, (2S)-1-({4-[3-(3-chloro-1H-pyrrolo[2,3-b]pyridin-5-yl)-1-(3,3-difluorocyclobutyl)-1H-pyrazol-4-yl]pyrimidin-2-yl}amino)propan-2-ol] | 61.9 nM |
| Cc1cc(-c2nn(CC(F)F)cc2-c2ccnc(NC[C@H](C)O)n2)cnc1N [Example B-18, (2S)-1-({4-[3-(6-amino-5-methylpyridin-3-yl)-1-(2,2-difluoroethyl)-1H-pyrazol-4-yl]pyrimidin-2-yl}amino)propan-2-ol] | 580 nM |
| CC(C)n1cc(-c2ccnc(NCCC#N)n2)c(-c2cnc3[nH]cc(F)c3c2)n1 [Example B-19, 3-({4-[3-(3-fluoro-1H-pyrrolo[2,3-b]pyridin-5-yl)-1-isopropyl-1H-pyrazol-4-yl]pyrimidin-2-yl}amino)propanenitrile] | 2.71 nM |
| CC(C)n1cc(-c2ccnc(NCCC#N)n2)c(-c2cnc3c(c2)CCN3)n1 [Example B-20, 3-({4-[3-(2,3-dihydro-1H-pyrrolo[2,3-b]pyridin-5-yl)-1-isopropyl-1H-pyrazol-4-yl]pyrimidin-2-yl}amino)propanenitrile] | 6.64 nM |
| N#CCCNc1nccc(-c2cn(CC(F)F)nc2-c2cnc3[nH]cc(F)c3c2)n1 [Example B-21, 3-({4-[1-(2,2-difluoroethyl)-3-(3-fluoro-1H-pyrrolo[2,3-b]pyridin-5-yl)-1H-pyrazol-4-yl]pyrimidin-2-yl}amino)propanenitrile] | 1.95 nM |
| CC(C)(CO)n1cc(-c2ccnc(NCCC#N)n2)c(-c2cnc3c(c2)CCN3)n1 [Example B-22, 3-({4-[3-(2,3-dihydro-1H-pyrrolo[2,3-b]pyridin-5-yl)-1-(2-hydroxy-1,1-dimethylethyl)-1H-pyrazol-4-yl]pyrimidin-2-yl}amino)propanenitrile] | 26.3 nM |
| Cc1c[nH]c2ncc(-c3nn(C(C)(C)CO)cc3-c3ccnc(NCCC#N)n3)cc12 [Example B-23, 3-({4-[1-(2-hydroxy-1,1-dimethylethyl)-3-(3-methyl-1H-pyrrolo[2,3-b]pyridin-5-yl)-1H-pyrazol-4-yl]pyrimidin-2-yl}amino)propanenitrile] | 0.428 nM |
| CC(C)(CO)n1cc(-c2ccnc(NCCC#N)n2)c(-c2cnc3[nH]cc(F)c3c2)n1 [Example B-24, 3-({4-[3-(3-fluoro-1H-pyrrolo[2,3-b]pyridin-5-yl)-1-(2-hydroxy-1,1-dimethylethyl)-1H-pyrazol-4-yl]pyrimidin-2-yl}amino)propanenitrile] | 3.26 nM |
| CC(C)(CO)n1cc(-c2ccnc(NCCC#N)n2)c(-c2cnc3[nH]ccc3c2)n1 [Example B-25, 3-({4-[1-(2-hydroxy-1,1-dimethylethyl)-3-(1H-pyrrolo[2,3-b]pyridin-5-yl)-1H-pyrazol-4-yl]pyrimidin-2-yl}amino)propanenitrile] | 5.98 nM |
| CC(=O)Nc1cc(C)c(-c2nn(CC(F)F)cc2-c2ccnc(NCCC#N)n2)cn1 [Example B-26, N-{5-[4-{2-[(2-cyanoethyl)amino]pyrimidin-4-yl}-1-(2,2-difluoroethyl)-1H-pyrazol-3-yl]-4-methylpyridin-2-yl}acetamide] | 2200 nM |
| O=S(=O)(C1CC1)N1CCC(Nc2nccc(-c3cn(CC(F)F)nc3-c3cnc4[nH]ccc4c3)n2)CC1 [Example B-27, N-[1-(cyclopropylsulfonyl)piperidin-4-yl]-4-[1-(2,2-difluoroethyl)-3-(1H-pyrrolo[2,3-b]pyridin-5-yl)-1H-pyrazol-4-yl]pyrimidin-2-amine] | 184 nM |
| Cc1ccc(-c2nn(CC(F)F)cc2-c2ccnc(NCCC#N)n2)cn1 [Example B-28, 3-({4-[1-(2,2-difluoroethyl)-3-(6-methylpyridin-3-yl)-1H-pyrazol-4-yl]pyrimidin-2-yl}amino)propanenitrile] | 538 nM |
| C[C@H](O)CNc1nccc(-c2cn(CC(F)F)nc2-c2ccnc3[nH]ccc23)n1 [Example B-29, (2S)-1-({4-[1-(2,2-difluoroethyl)-3-(1H-pyrrolo[2,3-b]pyridin-4-yl)-1H-pyrazol-4-yl]pyrimidin-2-yl}amino)propan-2-ol] | 9390 nM |
| COc1nc(-c2nn(C(C)(C)C)cc2-c2ccnc(NCCC#N)n2)cnc1N [Example B-30, 3-({4-[3-(5-amino-6-methoxypyrazin-2-yl)-1-tert-butyl-1H-pyrazol-4-yl]pyrimidin-2-yl}amino)propanenitrile] | 0.2 nM |
| COc1nc(-c2nn(C(C)C)cc2-c2ccnc(NCCC#N)n2)cnc1N [Example B-31, 3-({4-[3-(5-amino-6-methoxypyrazin-2-yl)-1-isopropyl-1H-pyrazol-4-yl]pyrimidin-2-yl}amino)propanenitrile] | 0.5 nM |
| COc1nc(-c2nn(CC(F)F)cc2-c2ccnc(NCCC#N)n2)cnc1N [Example B-32, 3-({4-[3-(5-amino-6-methoxypyrazin-2-yl)-1-(2,2-difluoroethyl)-1H-pyrazol-4-yl]pyrimidin-2-yl}amino)propanenitrile] | 1 nM |

Results, then the compound that gave them:

| IC50 | Compound |
| --- | --- |
| 4.48 nM | N#CCCNc1nccc(-c2cn(CC(F)F)nc2-c2cnc3[nH]ccc3c2)n1 [Example B-33, 3-({4-[1-(2,2-difluoroethyl)-3-(1H-pyrrolo[2,3-b]pyridin-5-yl)-1H-pyrazol-4-yl]pyrimidin-2-yl}amino)propanenitrile] |
| 29.5 nM | C[C@H](O)CNc1nccc(-c2cn(C(C)(C)C#N)nc2-c2cnc3[nH]cc(Cl)c3c2)n1 [Example B-34, 2-[3-(3-chloro-1H-pyrrolo[2,3-b]pyridin-5-yl)-4-(2-{[(2S)-2-hydroxypropyl]amino}pyrimidin-4-yl)-1H-pyrazol-1-yl]-2-methylpropanenitrile] |
| 193 nM | C[C@H](O)CNc1nccc(-c2cn(CC(F)F)nc2-c2cnc3ccn(C)c3c2)n1 [Example B-35, (2S)-1-({4-[1-(2,2-difluoroethyl)-3-(1-methyl-1H-pyrrolo[3,2-b]pyridin-6-yl)-1H-pyrazol-4-yl]pyrimidin-2-yl}amino)propan-2-ol] |
| 458 nM | N#CCCNc1nccc(-c2cn(CC(F)F)nc2-c2cnc3cc[nH]c3c2)n1 [Example B-36, 3-({4-[1-(2,2-difluoroethyl)-3-(1H-pyrrolo[3,2-b]pyridin-6-yl)-1H-pyrazol-4-yl]pyrimidin-2-yl}amino)propanenitrile] |
| 44 nM | Cn1ccc2ncc(-c3nn(C(C)(C)CO)cc3-c3ccnc(NCCC#N)n3)cc21 [Example B-37, 3-({4-[1-(2-hydroxy-1,1-dimethylethyl)-3-(1-methyl-1H-pyrrolo[3,2-b]pyridin-6-yl)-1H-pyrazol-4-yl]pyrimidin-2-yl}amino)propanenitrile] |
| 18.7 nM | Cn1ccc2ncc(-c3nn(CC(F)F)cc3-c3ccnc(NCCC#N)n3)cc21 [Example B-38] |
| 87.8 nM | CC(C)n1cc(-c2ccnc(NC[C@H](C)O)n2)c(-c2cnc(N)c(OC(F)F)c2)n1 [Example B-39, (2S)-1-[(4-{3-[6-amino-5-(difluoromethoxy)-pyridin-3-yl]-1-isopropyl-1H-pyrazol-4-yl}pyrimidin-2-yl)amino]propan-2-ol] |
| 48.2 nM | Cc1c[nH]c2ncc(-c3nn(C(F)F)cc3-c3ccnc(N)n3)cc12 [Example B-40, 4-[1-(difluoromethyl)-3-(3-methyl-1H-pyrrolo[2,3-b]pyridin-5-yl)-1H-pyrazol-4-yl]pyrimidin-2-amine] |
